Measured values reported in US20190263867A1, “TAU PEPTIDES, METHODS OF MAKING, AND METHODS OF USING” (priority 2018, published 2019).
Entries after “also recorded” stand apart in the source; their conditions may differ.

How the values were obtained:
[1] = tested on: cultured G2-3 (A53T αS) mouse hippocampal neurons expressing eGFP-WT tau; assay: A53T αS-dependent mislocalization of tau to dendritic spines, GSK3β inhibition; format: cell-based; conditions: 3 μM, applied at 16 DIV, imaged at 21 DIV
[2] = tested on: low density hippocampal neurons from G2-3 mice; assay: GluA1 surface expression in dendritic spines of G2-3 neurons; format: cell-based, mouse
Excerpt: FIG. 21A. Photomicrographs of neurons from G2-3 mice and their TgNg littermates without (top two panels) and with treatment of CHIR-99021 (bottom two panels). As previously described (Liao et al. 1999 Nature Neuroscience 2(1): 37-43), live neurons were stained for N-GluA1 antibodies (green), fixed, permeablized, and stained for PSD-95 (red). Arrows indicate tightly clustered surface N-GluA1 colocalized with PSD-95, whereas weak, non-specific N-GluR1 immunoreactivity appeared along the dendritic shafts as diffuse staining rather than distinct clusters in G2-3 neurons (arrow heads). The diffuse staining is likely due to the presence of extrasynaptic AMPA receptors (Newpher and Ehlers 2008 Neuron 58: 472-97). […] Scale bar: […]. FIG. 21B. GluA1 surface fluorescence in PSD-95 immunoreactive spines was normalized to dendritic fluorescence. […] For all n=8; data are expressed as mean±s.e.m. […]
Cultured neurons were fixed and permeabilized successively with 4% paraformaldehyde, 100% methanol, and 0.2% Triton X-100 (Lin et al. 2009 Neuropsychopharmacology 34(9):2097-111). […] In FIG. 4A-FIG. 4B, the number of synaptophysin clusters and their colocalization with boutons of neurons expressing eGFP or eGFP-labeled αS were automatically counted using ImageJ software (available on the world wide web at imagej.nih.gov/ij/). […] DAPI stained nuclei were manually counted from wide-field photomicrographs. […]

[3] = tested on: cultured rat hippocampal neurons expressing A53T αS; assay: AMPA receptor mEPSCs in neurons transfected with A53T αS; format: cell-based; conditions: GSK3β inhibition with CHIR
[4] = tested on: rat hippocampal neurons expressing P301L mutant eGFP-tau; assay: P301L mutant tau mislocalization to dendritic spines, kinase inhibitor treatment; format: cell-based
Excerpt: FIG. 5A. […] FIG. 5B. […] FIG. 5C. […] FIG. 5D. […] FIG. 5E.

[5] = tested on: primary cultured rat hippocampal neurons; assay: Cell death of cultured neurons under kinase inhibitor treatment; format: cell-based; conditions: Sprague-Dawley, 24 h
Protocol: Roscovitine and CHIR99021 were purchased from Sigma-Aldrich (St. Louis, Mo.) and were diluted in DMSO to four 1000× concentration aliquots for ultimate concentrations in neurobasal medium of […]. Primary cultured rat hippocampal neurons transfected with dsRed and eGFP-P301L-tau were treated with one of four 1000× aliquots or DMSO vehicle on DIV 20-22. Treated cells were incubated for 24 hours prior to imaging on DIV 21-23. Cell death was visually assessed under differential interference contrast (DIC) for decreased cell density, lost soma adhesion, gross qualitative neurite retraction. If evidence of cell death was observed under DIC, cells were fixed in 4% sucrose and 4% paraformaldehyde in PBS and stained with 300 nM DAPI in PBS. DAPI stained cells were analyzed under fluorescent microscopy for nuclear pyknosis and karyorrhexis; dsRed expressing cells were analyzed for spine loss. If no cell death was evident under DIC, live fluorescent images were acquired and analyzed as above.

[6] = tested on: neurons expressing GFP-tagged P301L-tau; assay: Missorting of tau to dendritic spines in neurons expressing P301L mutant tau, peptide treatment; format: cell-based, rat; conditions: for proportion of dendritic spines that contain tau (tau mis-sorting caused by P301L mutation): 21 DIV neurons, GFP-tagged P301L-tau, peptide 1 μM for 3 days
Protocol: FIG. 10A-FIG. 10B show missorting of tau to dendritic spines caused by P301L mutation is blocked by Peptide 1 and Peptide 2 but not Peptide 3. FIG. 10A 21 days in vitro (DIV) neurons expressing DsRed (left panels) and GFP-tagged P301L-tau (middle panels) were treated with AP peptide (Peptide 2; 1 μM) for 3 days (top panels: untreated; bottom panels: treated).
Transfected cells were continually bathed in neurobasal media and were passively perfused with medical-grade 95% O2-5% CO2. Micrographs were taken on a Nikon epifluorescent inverted microscope with 60× oil lens with a computerized focus motor at DIV 21-23. All digital images were processed using METAMORPH Imaging System (Universal Imaging Corporation, Molecular Devices, San Jose, Calif.). Images were taken as 15 plane stacks at 0.5 micron increments, processed by deconvolution to the nearest planes, and averaged against other stacked images. A dendritic spine was defined as having an expanded head diameter, greater than 50% larger in diameter than the neck. The number of spines per neuron were counted and normalized to a […] length of dendritic shaft. […]

[7] = tested on: rat hippocampal neurons expressing GFP-WT-tau; assay: Tau missorting to dendritic spines in mechanically injured (stretched) neurons, TBI model; format: cell-based; conditions: 10 stretches, 2% strain; AP peptide 1 μM
Protocol: FIG. 12A. Representative live images of cultured rat hippocampal neurons that had been co-transfected with plasmids of DsRed (left lane; a red fluorescence protein to label dendritic spines) and green fluorescence protein (GFP)-tagged wild-type tau (GFP-WT-tau; middle lane) with overlay images on the right lane 2 days after the delivery of a mechanical protocol. The neurons were cultured on a plastic membrane and were stretched by a computer-controlled mechanical device, as described in Example 2 (10 stretches; 2% mechanical strain; 1 second interval between stretches) in 21 days in vitro (DIV). Arrows denote dendritic spines that contain tau and triangles denote dendritic spines devoid of tau. FIG. 12B. […] FIG. 12C. […] ANOVA was used in FIG. 12B and FIG. 12C; *** indicates p<0.001.
In a tauopathy model for traumatic brain injuries (TBI) based on the model of Hemphill et al. 2011 PLoS One. 6(7):e2289), mechanical injuries to neurons induce tau missorting to dendritic spines (FIG. 12). The methods of Hemphill et al. were modified such that plasmids encoding GFP-tagged tau were introduced into neurons, allowing detection of tau abnormalities as well as tau-mediated synaptic deficits. Briefly, neurons were plated onto medical grade silicone elastomer membranes (0.010 inch NRV, Specialty Manufacturing, Inc., Saginaw, Mich.) and glued inside a reducing well. […]

[8] = tested on: rat hippocampal neurons expressing GFP-tagged wild-type human tau; assay: Mislocalization of tau to dendritic spines caused by Aβ oligomers; format: cell-based; conditions: Aβ oligomers 0.1 μM with AP peptide 1 μM, 3 days
Protocol: FIG. 11A Cultured 21 days in vitro (DIV) rat hippocampal neurons expressing DsRed (left panels) and GFP-tagged wild-type human tau (middle panels) were untreated (top panels), treated with Aβ oligomers alone (0.1 μM) (middle panels), or treated with Aβ oligomers (0.1 μM) with AP peptide (1 μM) (bottom panels) for 3 days.

[9] = 500 nM chir99021 and 500 nM roscovitine in combination
[10] = either drug alone, concentrations up to 5 μM

## Cc1c[nH]c(-c2cnc(NCCNc3ccc(C#N)cn3)nc2-c2ccc(Cl)cc2Cl)n1 [CHIR99021]
[1]
  increase in dendritic spines containing mislocalized eGFP-tau in G2-3 neurons: blocked
[2]; listed as CHIR
  surface N-GluA1 synaptic localization (colocalization with PSD-95): strong colocalization of PSD-95 and N-GluA1 clusters is restored
[2]; listed as CHIR-99021
  surface N-GluA1 synaptic localization (colocalization with PSD-95): restored surface N-GluA1 synaptic localization
[3]
  postsynaptic deficits (mEPSC amplitude) caused by A53T αS transfection: completely reverse
[4]; [9]
  percentage of eGFP-containing spines: reduced the percentage of eGFP-containing spines to that of wild type eGFP-tau
[4]; [10]
  percentage of eGFP-containing spines: neither drug alone, at concentrations up to 5 μM, lowered the percentage of eGFP-containing spines to control levels
[5]
  concentration that killed the neurons: above 5 μM
  drug concentration at which overt cell death was observed: exceeded 5 M

## CC[C@H](CO)Nc1nc(NCc2ccccc2)c2ncn(C(C)C)c2n1 [roscovitine]
[4]; [9]
  percentage of eGFP-containing spines: reduced the percentage of eGFP-containing spines to that of wild type eGFP-tau
[4]; [10]
  percentage of eGFP-containing spines: neither drug alone, at concentrations up to 5 μM, lowered the percentage of eGFP-containing spines to control levels

## H2N-GRKKRRQRRRPQDHGAEIVYKAPVVSGDTAPRHLSNVS ST-OH (H-GRKKRRQRRRPQDHGAEIVYKAPVVSGDTAPRHLSNVSST-OH) [Peptide 2]
[6]
  proportion of dendritic spines that contain tau (tau mis-sorting caused by P301L mutation): block mislocalization of tau
[6]; listed as AP peptide
  proportion of dendritic spines that contain tau (tau mis-sorting caused by P301L mutation): blocked tau mis-sorting; also recorded: significantly decreased
[6]; neurons expressing P301L mutant tau
  strength of effect on tau mis-sorting compared with WT peptide: stronger effect
[7]
  proportion of dendritic spines containing tau after mechanical stretches: blocked tau missorting to dendritic spines
[8]
  proportion of dendritic spines that contain tau, increase caused by Aβ oligomers: blocked
[8]; listed as AP peptide
  proportion of dendritic spines that contain tau, increase caused by Aβ oligomers: block tau mislocalization; also recorded: can block tau missorting to dendritic spines

## H2N-GRKKRRQRRRPQDHGAEIVYKEPVVSGDTEPRHLSNVS ST-OH (H-GRKKRRQRRRPQDHGAEIVYKEPVVSGDTEPRHLSNVSST-OH) [Peptide 3]
[6]
  proportion of dendritic spines that contain tau (tau mis-sorting caused by P301L mutation): did not block
[6]; listed as EP Peptide
  proportion of dendritic spines that contain tau (tau mis-sorting caused by P301L mutation): No decrease
[6]; listed as EP peptide
  proportion of dendritic spines that contain tau (tau mis-sorting caused by P301L mutation): did not block tau mis-sorting
